Measured values as given in US11202836B2, “PSMA targeted conjugate compounds and uses thereof” (CASE WESTERN RESERVE UNIVERSITY, priority 2018, dated 2021).
*1 amine or outer side, *2 acyl side, *3 side chain or, on linkers, in order; H or OH if unused. Where a SMILES comes first, the peptide text is derived from it. [ ]: non-standard residue; d: D form. γGlu = O=C(O)[C@H](CCC(=O)[*:2])N[*:1]; X1 = O=C(C1CCC(CN[*:1])CC1)[*:2]; CO = O=C([*:1])[*:2]; Ahx = NCCCCCC(=O)O

Key:
PC3Pip flank tumors = assay: Example 1 mouse PC3Pip flank tumor xenograft study; type: in vivo, mice; settings: 2 mg/kg doxorubicin or molar equivalent, day 0, 7, 14, i.v.
Protocol: All animal procedures were performed according to the protocols approved by the Institutional Animal Care and Use Committee (IACUC). Our approval is Case Western Reserve University IACUC #2015-0033. Athymic nude mice aged 6-8 weeks were implanted subcutaneously with 1×10^6 PC3Pip cells in 100 μL Matrigel on the right flank. Tumors were allowed to grow for two weeks. Mice were then treated with three doses of free doxorubicin or PSMA-1-MMCCH-Dox in PBS on day 0, 7, and 14 of the study via tail vein injection. Dose used was 2 mg/kg doxorubicin, or the equivalent molar dosage of the PSMA-targeted prodrug. Tumor dimensions were measured using calipers twice per week, and mouse weights were recorded on these days, as well. The study duration was 21 days.

PC3pip cells = assay: Example 1 cytotoxicity assay (Dojindo CCK8), PSMA-expressing cells; type: cell-based; settings: continuous 48 hours
Protocol: (§1) PC3Pip and PC3Flu cells (2000 cells/100 μL/well) were plated in 96 well plates and rested for 24 hours to adhere to the plate surface. To each well, we added 10 μL of an 11× concentrated solution of doxorubicin or conjugate. Each drug dose was tested in groups of six wells. Dojindo CCK8 assays were used to determine relative cell survival of treated wells compared with untreated controls. This is a […] assay for determination of cell viability and proliferation. A water-soluble tetrazolium salt, WST-8, is reduced by dehydrogenase activity in the cell which produces an orange dye with relative amounts quantified by absorbance. Briefly, 10 μL assay solution was added to each well, the plate was left to incubate while orange color was produced, the absorption of the solution in the plate was read at 450 nm, and the cell viabilities were calculated.

PC3flu cells = assay: Example 1 cytotoxicity assay (Dojindo CCK8), PSMA-negative cells; type: cell-based; settings: continuous 48 hours
Protocol: as §1

PC3Pip and PC3Flu cells = assay: Example 1 in vitro cellular uptake (doxorubicin fluorescence microscopy); type: cell-based; settings: 1 μM, 90 minutes or 48 hours
Protocol: PC3Pip and PC3flu cells (1.5×10^5) were plated on coverslips and allowed to adhere for 36-48 hours. Cells were incubated in 1 μM of free doxorubicin or the various PSMA-1-Doxorubicin conjugates in RPMI media. Similar experiments are reported widely in the literature, with doses usually in the μM range because of doxorubicin's relatively dim fluorescence, at least compared with some of the commercially available dyes used in our lab. This dose was chosen to balance that relatively dim fluorescence with a goal of attempting to maintain selectivity.
Next, cells were washed 3 times with RPMI media, fixed with 4% paraformaldehyde for 10 minutes, and washed twice with phosphate-buffered saline (PBS). The cells were counterstained with DAPI nuclear staining, mounted on microscope slides with a 50% mounting solution mixture of PBS and glycol, and the coverslips were sealed with clear nail polish. Fluorescent imaging was performed with Leica DM4000B fluorescence microscopy. DAPI imaging used the Blue filter with excitation/emission at 410/455 nm. Doxorubicin was imaged with the Texas Red filter with Ex/Em 587/612 nm.

PSMA = target: T1, PSMA (Homo sapiens, UniProt Q04609); assay: Competitive binding assay against 3H-ZJ24 on PC3pip cells; settings: 10 nM 3H-ZJ24, read-out: IC50, competition binding to PSMA
T1 construct: expressed in transfected cells; host or cells: PC3pip cells (retrovirally transfected, from Dr. Michel Sadelain, MSKCC)
T1 sequence (Q04609 whole entry): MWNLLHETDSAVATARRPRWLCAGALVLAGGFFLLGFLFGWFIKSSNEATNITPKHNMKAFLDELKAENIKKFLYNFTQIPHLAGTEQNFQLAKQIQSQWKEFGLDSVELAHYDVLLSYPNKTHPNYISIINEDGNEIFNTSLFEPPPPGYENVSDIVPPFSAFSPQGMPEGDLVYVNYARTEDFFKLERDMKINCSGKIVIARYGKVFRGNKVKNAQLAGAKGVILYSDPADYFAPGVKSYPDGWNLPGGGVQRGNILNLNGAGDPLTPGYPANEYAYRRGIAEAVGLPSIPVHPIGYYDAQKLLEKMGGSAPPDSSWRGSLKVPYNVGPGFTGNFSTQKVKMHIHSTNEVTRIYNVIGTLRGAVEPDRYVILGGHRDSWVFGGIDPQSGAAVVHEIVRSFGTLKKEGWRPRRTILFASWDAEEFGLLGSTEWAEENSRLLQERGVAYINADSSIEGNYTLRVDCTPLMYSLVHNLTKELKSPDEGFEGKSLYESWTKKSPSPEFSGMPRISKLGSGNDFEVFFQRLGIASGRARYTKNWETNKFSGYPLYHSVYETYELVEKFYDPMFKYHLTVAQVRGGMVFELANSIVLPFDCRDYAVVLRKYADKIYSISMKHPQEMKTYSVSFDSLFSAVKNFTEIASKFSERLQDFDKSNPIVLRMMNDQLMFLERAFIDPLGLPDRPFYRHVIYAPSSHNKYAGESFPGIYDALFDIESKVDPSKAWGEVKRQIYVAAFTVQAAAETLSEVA
Protocol: The assay was carried as previously reported by incubation PC3pip cells with different concentrations of drug conjugates in the presence of 10 nM N—[N—[(S)-1,3-dicarboxypropyl]carbamoyl]-S-[^3H]-methyl-L-cysteine (^3H-ZJ24) (GE Healthcare Life Sciences, Pittsburgh, Pa.). Radioactivity of cell pellet was counted by scintillation counter. The concentration required to inhibit 50% of binding was determined (IC50) by GraphPad Prism 3.0.

Row | SMILES | tumor growth (PC3Pip flank tumors) | weight loss over the duration of the study (PC3Pip flank tumors; 21 days) | growth inhibition of PC3Pip cells (PC3pip cells) | growth inhibition of PC3Flu cells (PC3flu cells) | subcellular pattern of doxorubicin signal (PC3Pip and PC3Flu cells) | uptake in PC3Pip compared with PC3Flu cells (PC3Pip and PC3Flu cells) | IC50 (PSMA)
1 | COc1cccc2c1C(=O)c1c(O)c3c(c(O)c1C2=O)C[C@@](O)(C(=O)CO)C[C@@H]3O[C@H]1C[C@H](N)[C@H](O)[C@H](C)O1 [doxorubicin] | more rapid tumor growth | 17.3% | potent, equal growth inhibition | potent, equal growth inhibition | primarily in the nucleus | equally seen in PC3Pip and PC3Flu cell lines | 
2 | NCCCC[C@H](NC(=O)[C@H](CCC(=O)O)NC(=O)[C@H](CCC(=O)O)NC(=O)[C@H](CCC(=O)O)NC(=O)CCCCCNC(=O)C1CCC(CNC(=O)CC[C@H](NC(=O)N[C@@H](CCC(=O)O)C(=O)O)C(=O)O)CC1)C(N)=O (stereo partly shown) [PSMA-1] ({Glu-CO-γGlu}-[X1][Ahx]EEEK-NH2; C-terminus assumed) |  |  |  |  |  |  | 2.3 nM
